Reference: ChEMBL document CHEMBL1137034, “Synthesis of 1H-pyridin-2-one derivatives as potent and selective farnesyltransferase inhibitors” (Bioorg Med Chem Lett, 2004)

Columns and labels:
[1] = Inhibition of [3H]FPP incorporation into biotin-linked K-ras decapeptide (CVIM) by bovine farnesyltransferase; parameters: species or system Bos taurus
[2] = molecular target: T1, Geranylgeranyl transferase type I (Bos taurus, UniProt P29702+Q5EAD5); assay: inhibitory concentration needed to reduce the bovine GGTase-catalyzed incorporation of […] into a biotin-linked K-ras (B) decapeptide; format: protein-complex assay
[3] = molecular target: Protein farnesyltransferase (Mus musculus, UniProt Q61239+Q8K2I1); assay: Reduced farnesylation of H-ras transformed NIH3T3 cells; format: functional, cell-based
[4] = Inhibition of [3H]-FPP incorporation into biotin-linked K-ras decapeptide (CVIM) by bovine farnesyltransferase; parameters: species or system Bos taurus
[5] = molecular target: T1, Geranylgeranyl transferase type I; assay: Inhibition of [3H]FPP incorporation into biotin-linked K-ras decapeptide (CVLL) by bovine geranylgeranyltransferase; format: protein-complex assay
[6] = Plasma clearance was determined; format: ADME, organism-based, Canis lupus familiaris; settings: dog, in vivo
[7] = Half life in dog; format: ADME, Canis lupus familiaris; settings: in vivo
[8] = Oral bioavailability in dog; format: ADME, organism-based, Canis lupus familiaris; settings: in vivo

Structure (SMILES)	IC50 [1]	IC50 [2]	EC50 [3]	also measured
Cn1cncc1C(OCc1c(-c2cccc(Cl)c2)cc(C#N)c(=O)n1C)c1ccc(C#N)cc1 (configuration not stated)	0.44 nM	2.7 nM	0.5 nM	
Cn1cncc1C(OCc1c[nH]c(=O)cc1-c1cccc(Cl)c1)c1ccc(C#N)cc1 (configuration not stated)		6200 nM		
Cn1cncc1C(OCc1cn(Cc2ccc(C#N)cc2)c(=O)cc1-c1cccc(Cl)c1)c1ccc(C#N)cc1 (configuration not stated)				IC50 [4]: 5 nM; IC50 [5]: > 10000 nM
Cn1cncc1C(OCc1cn(Cc2cccc(C#N)c2)c(=O)cc1-c1cccc(Cl)c1)c1ccc(C#N)cc1 (configuration not stated)	1.3 nM	1900 nM	9 nM	Plasma clearance [6]: 8.83 mL/min/kg; half-life [7]: 1.4 h; bioavailability [8]: 47%
Cn1cncc1C(OCc1cn(CC#N)c(=O)cc1-c1cccc(Cl)c1)c1ccc(C#N)cc1 (configuration not stated)	19 nM	> 10000 nM		
Cn1cncc1C(OCc1c(-c2cccc(Cl)c2)cc(C#N)n(C)c1=O)c1ccc(C#N)cc1 (configuration not stated)	1.2 nM	> 10000 nM	11.4 nM	
Cn1cncc1C(OCc1cn(Cc2cccc(Cl)c2)c(=O)cc1-c1cccc(Cl)c1)c1ccc(C#N)cc1 (configuration not stated)	2.1 nM	1200 nM	10 nM	
Cn1cncc1C(OCc1c(-c2cccc(C(F)(F)F)c2)cc(C#N)n(C)c1=O)c1ccc(C#N)cc1 (configuration not stated)	7.5 nM	3600 nM		
Cn1cncc1C(OCc1cn(Cc2cccc(F)c2)c(=O)cc1-c1cccc(Cl)c1)c1ccc(C#N)cc1 (configuration not stated)	2.1 nM	2000 nM	15 nM	
Cn1cncc1C(OCc1ccc(C#N)cc1-c1cccc(Cl)c1)c1ccc(C#N)cc1 (configuration not stated)	0.87 nM	1.3 nM	5.2 nM	
Cn1cncc1C(OCc1cn(C)c(=O)cc1-c1cccc(Cl)c1)c1ccc(C#N)cc1 (configuration not stated)	12 nM	> 10000 nM		
Cn1cncc1C(OCc1cn(Cc2cccnc2Br)c(=O)cc1-c1cccc(Cl)c1)c1ccc(C#N)cc1 (configuration not stated)	3 nM	6600 nM		
Cn1cncc1C(OCc1cn(Cc2ccccc2C#N)c(=O)cc1-c1cccc(Cl)c1)c1ccc(C#N)cc1 (configuration not stated)	2.3 nM	7700 nM		
Cn1cncc1C(OCc1c(-c2cc(Cl)cc(Cl)c2)cc(C#N)n(C)c1=O)c1ccc(C#N)cc1 (configuration not stated)	1.1 nM	9400 nM	15 nM	
